Assays:
Assay type in all cases: in vivo
Bromus sterilis = assay: Post-emergence herbicidal action against Bromus sterilis
Text: (§1) The following abbreviations are used in the description and the tables that follow: • g of a.i./ha=grams of active substance (active ingredient) (=100% active compound) per hectare; • The sum total of the effects of the individual applications is reported under E^A; • expected values according to Colby are each reported under E^C.
(§2) The rating period is reported in days after application (DAT).

Lolium rigidum = assay: Post-emergence herbicidal action against Lolium rigidum
Text: as §1, §2

[1] = tested on: Lolium rigidum (resistant biotype); assay: Post-emergence herbicidal action against Lolium rigidum (resistant biotype)
Text: as §1, §2

Alopecurus myosuroides = assay: Post-emergence herbicidal action against Alopecurus myosuroides
Text: as §1, §2

Matricaria inodora = assay: Post-emergence herbicidal action against Matricaria inodora; settings: post-emergence, 14 DAT
Phalaris minor = assay: Post-emergence herbicidal action against Phalaris minor
Text: as §1, §2

Veronica hederifolia = assay: Post-emergence herbicidal action against Veronica hederifolia
Text: as §1, §2

Poa annua = assay: Post-emergence herbicidal action against Poa annua; settings: post-emergence
Procedure: (§3) When the observed efficacies exceed the formal sum total of the values of the tests with individual applications, they also exceed the expected value according to Colby, which is calculated using the formula below and is likewise regarded as an indication of synergism (cf. S. R. Colby; in Weeds 15 (1967) p. 20 to 22): E^C=A+B−([…])
(§4) Here: • A=efficacy of the active compound (A) in % at an application rate of a g a.i./ha; • B=efficacy of the active compound (B) in % at an application rate of b g a.i./ha; • E^C=expected value of the effect of the combination (A)+(B) in % at the combined application rate a+b g a.i./ha.
(§5) Seeds or rhizome pieces of mono- and dicotyledonous weeds are placed in sandy loam in pots, covered with soil and grown in a greenhouse under good growth conditions (temperature, air humidity, water supply). Three weeks after sowing, the test plants were treated at the three-leaf stage with the compositions according to the invention. The compositions according to the invention formulated as spray powders or as emulsion concentrates were sprayed onto the green plant parts in various dosages with an application rate of 300 to 800 l/ha of water (equivalent). After the test plants have been left to stand in the greenhouse under optimal growth conditions for about 3 to 4 weeks, the action of the preparations is scored visually in comparison to untreated controls. The compositions according to the invention also have good post-emergence herbicidal activity against a broad spectrum of economically important gramineous and broadleaf weeds.

Brachiaria platyphylla = assay: Post-emergence herbicidal action against Brachiaria platyphylla; settings: 4 g of a.i./ha, post-emergence, block with (B9.10) Saflufenacil
Procedure: as §3, §4, §5

Pharbitis purpurea = assay: Post-emergence herbicidal action against Pharbitis purpurea; settings: 1.3 g of a.i./ha, post-emergence
Procedure: as §3, §4, §5

Amaranthus palmeri = assay: Post-emergence herbicidal action against Amaranthus palmeri; settings: Amaranthus palmeri, post-emergence, 504 h, 1.3 g of a.i./ha, post-emergence, block with (B9.10) Saflufenacil; read-out: Herbicidal action 21 DAT [%] against Amaranthus palmeri
Procedure: as §3, §4, §5

Digitaria sanguinalis = assay: Post-emergence herbicidal action against Digitaria sanguinalis; settings: 12 g of a.i./ha, post-emergence
Procedure: as §3, §4, §5

COc1c(Cl)ccc(-c2cc(N)c(Cl)c(C(=O)O)n2)c1F [(B5.31) Halauxifen]
Herbicidal action in [%] 14 DAT against Bromus sterilis (Bromus sterilis; 1 g of a.i./ha): 0%
Herbicidal action in [%] 14 DAT against Bromus sterilis (Bromus sterilis; 3 g of a.i./ha): 10%
Herbicidal action in [%] 14 DAT against Bromus sterilis (Bromus sterilis; 9 g of a.i./ha): 30%
Herbicidal action in [%] 28 DAT against Bromus sterilis (Bromus sterilis; 1 g of a.i./ha): 0%
Herbicidal action in [%] 28 DAT against Bromus sterilis (Bromus sterilis; 3 g of a.i./ha): 0%
Herbicidal action in [%] 28 DAT against Bromus sterilis (Bromus sterilis; 9 g of a.i./ha): 20%
Herbicidal action in [%] 14 DAT against Lolium rigidum (Lolium rigidum; 1 g of a.i./ha): 0%
Herbicidal action in [%] 14 DAT against Lolium rigidum (Lolium rigidum; 3 g of a.i./ha): 0%
Herbicidal action in [%] 14 DAT against Lolium rigidum (Lolium rigidum; 9 g of a.i./ha): 5%
Herbicidal action in [%] 28 DAT against Lolium rigidum (Lolium rigidum; 1 g of a.i./ha): 0%
Herbicidal action in [%] 28 DAT against Lolium rigidum (Lolium rigidum; 3 g of a.i./ha): 0%
Herbicidal action in [%] 28 DAT against Lolium rigidum (Lolium rigidum; 9 g of a.i./ha): 0%
Herbicidal action in [%] 14 DAT against Lolium rigidum (resistant biotype) ([1]; 1 g of a.i./ha): 0%
Herbicidal action in [%] 14 DAT against Lolium rigidum (resistant biotype) ([1]; 3 g of a.i./ha): 0%
Herbicidal action in [%] 14 DAT against Lolium rigidum (resistant biotype) ([1]; 9 g of a.i./ha): 5%
Herbicidal action in [%] 28 DAT against Lolium rigidum (resistant biotype) ([1]; 1 g of a.i./ha): 0%
Herbicidal action in [%] 28 DAT against Lolium rigidum (resistant biotype) ([1]; 3 g of a.i./ha): 0%
Herbicidal action in [%] 28 DAT against Lolium rigidum (resistant biotype) ([1]; 9 g of a.i./ha): 10%
Herbicidal action in [%] 14 DAT against Alopecurus myosuroides (Alopecurus myosuroides; 1 g of a.i./ha): 0%
Herbicidal action in [%] 14 DAT against Alopecurus myosuroides (Alopecurus myosuroides; 3 g of a.i./ha): 0%
Herbicidal action in [%] 14 DAT against Alopecurus myosuroides (Alopecurus myosuroides; 9 g of a.i./ha): 5%
Herbicidal action in [%] 28 DAT against Alopecurus myosuroides (Alopecurus myosuroides; 1 g of a.i./ha): 0%
Herbicidal action in [%] 28 DAT against Alopecurus myosuroides (Alopecurus myosuroides; 3 g of a.i./ha): 0%
Herbicidal action in [%] 28 DAT against Alopecurus myosuroides (Alopecurus myosuroides; 9 g of a.i./ha): 0%
Herbicidal action in [%] 14 DAT against Matricaria inodora (Matricaria inodora; 1 g of a.i./ha): 30%
Herbicidal action in [%] 14 DAT against Matricaria inodora (Matricaria inodora; 3 g of a.i./ha): 40%
Herbicidal action in [%] 14 DAT against Matricaria inodora (Matricaria inodora; 9 g of a.i./ha): 60%
Herbicidal action in [%] 14 DAT against Phalaris minor (Phalaris minor; 1 g of a.i./ha): 0%
Herbicidal action in [%] 14 DAT against Phalaris minor (Phalaris minor; 3 g of a.i./ha): 0%
Herbicidal action in [%] 14 DAT against Phalaris minor (Phalaris minor; 9 g of a.i./ha): 5%
Herbicidal action in [%] 28 DAT against Phalaris minor (Phalaris minor; 1 g of a.i./ha): 0%
Herbicidal action in [%] 28 DAT against Phalaris minor (Phalaris minor; 3 g of a.i./ha): 0%
Herbicidal action in [%] 28 DAT against Phalaris minor (Phalaris minor; 9 g of a.i./ha): 5%
Herbicidal action in [%] 14 DAT against Veronica hederifolia (Veronica hederifolia; 3 g of a.i./ha): 60%
Herbicidal action in [%] 14 DAT against Veronica hederifolia (Veronica hederifolia; 9 g of a.i./ha): 60%
Herbicidal action in [%] 14 DAT against Poa annua L. (Poa annua; 1 g of a.i./ha): 0%
Herbicidal action in [%] 14 DAT against Poa annua L. (Poa annua; 3 g of a.i./ha): 0%
Herbicidal action in [%] 14 DAT against Poa annua L. (Poa annua; 9 g of a.i./ha): 5%
Herbicidal action in [%] 28 DAT against Poa annua L. (Poa annua; 1 g of a.i./ha): 0%
Herbicidal action in [%] 28 DAT against Poa annua L. (Poa annua; 3 g of a.i./ha): 0%
Herbicidal action in [%] 28 DAT against Poa annua L. (Poa annua; 9 g of a.i./ha): 0%

CC(C)N(C)S(=O)(=O)NC(=O)c1cc(-n2c(=O)cc(C(F)(F)F)n(C)c2=O)c(F)cc1Cl [(B9.10) Saflufenacil, saflufenacil, reference compound]
Herbicidal action 21 DAT [%] against Brachiaria platyphylla (Brachiaria platyphylla): 25%
Herbicidal action 21 DAT [%] against Pharbitis purpurea (Pharbitis purpurea): 30%
pest or weed control at 1.3 g/ha (Amaranthus palmeri): 70%
Herbicidal action 21 DAT [%] against Digitaria sanguinalis (Digitaria sanguinalis): 50%

From patent publication US12171230B2, “Herbicidal compositions” (Bayer Aktiengesellschaft, priority 2018, dated 2024)
